Measured values: PMC11485011 (Chemical Science, 2024)

Target: hCB2R (Homo sapiens, UniProt P34972)
Type: cell-based
Settings: 5 µM inhibitor, 90 min preincubation; probes 12, 15, 18; hCB2R CHO cells

Sequence of hCB2R (P34972 whole entry): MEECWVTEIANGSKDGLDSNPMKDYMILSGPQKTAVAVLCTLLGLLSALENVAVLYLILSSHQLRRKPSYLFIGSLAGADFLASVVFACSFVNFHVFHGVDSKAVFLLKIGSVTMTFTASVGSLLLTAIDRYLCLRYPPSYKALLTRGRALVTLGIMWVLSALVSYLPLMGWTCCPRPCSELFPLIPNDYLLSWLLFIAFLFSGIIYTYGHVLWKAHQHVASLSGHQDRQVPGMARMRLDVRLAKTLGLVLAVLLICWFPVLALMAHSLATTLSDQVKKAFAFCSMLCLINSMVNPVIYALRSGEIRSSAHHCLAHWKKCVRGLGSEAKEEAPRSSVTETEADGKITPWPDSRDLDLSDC

CC(C)(C)c1nc(N2CC[C@H](O)C2)c2nnn(Cc3nnnn3C3CC3)c2n1 [RO6871304]
blocking of fluorescent probe staining: completely blocked the staining
